Experiment: Measurement of the concentration of astaxanthin dissolved at room temperature
Format: physicochemical

Concentration dissolved (solvent 1,4-dioxane (Ethers), room temperature): 0.3 % (wt./wt.)
Concentration dissolved (solvent Acetone (Ketones), room temperature): 0.02 % (wt./wt.)
Concentration dissolved (solvent Benzene (Hydrocarbons), room temperature): 0.05 % (wt./wt.)
Concentration dissolved (solvent Chloroform (Halogens), room temperature): 0.7 % (wt./wt.)
Concentration dissolved (solvent Cyclohexane (Hydrocarbons), room temperature): 0.001 % (wt./wt.)
Concentration dissolved (solvent Cyclohexanone (Ketones), room temperature): 0.2 % (wt./wt.)
Concentration dissolved (solvent Dichloromethane (Halogens), room temperature): 2.3 % (wt./wt.)
Concentration dissolved (solvent Ethanol (Alcohols), room temperature): 0.002 % (wt./wt.)
Concentration dissolved (solvent Hexane (Hydrocarbons), room temperature): 0.003 % (wt./wt.)
Concentration dissolved (solvent Isopropanol (Alcohols), room temperature): 0.002 % (wt./wt.)
Concentration dissolved (solvent Methanol (Alcohols), room temperature): 0.003 % (wt./wt.)
Concentration dissolved (solvent Methylethylketone (Ketones), room temperature): 0.03 % (wt./wt.)
Concentration dissolved (solvent Methylisobutylketone (Ketones), room temperature): 0.02 % (wt./wt.)
Concentration dissolved (solvent Tetrahydrofuran (Ethers), room temperature): 0.7 % (wt./wt.)
Concentration dissolved (solvent Toluene (Hydrocarbons), room temperature): 0.03 % (wt./wt.)
Concentration dissolved (solvents other than halogen solvents, room temperature (summary of Table 1)): ≤ 1%
Structure (SMILES): CC1=C(/C=C/C(C)=C/C=C/C(C)=C/C=C/C=C(C)/C=C/C=C(C)/C=C/C2=C(C)C(=O)[C@@H](O)CC2(C)C)C(C)(C)C[C@H](O)C1=O [astaxanthin]

— patent US8097761B2, “Process for production of carotenoid” (JX Nippon Oil & Energy Corporation, priority 2006, dated 2012)
